According to ChEMBL document CHEMBL2311490 (Bioorg Med Chem Lett, 2013):

Experiments:
Xenopus laevis [1] = organism: Xenopus laevis; test: Antimelanogenic activity in Xenopus laevis tadpoles assessed as melanophore aggregation by microscopy relative to melatonin; format: functional
Xenopus laevis [2] = organism: Xenopus laevis; test: Antimelanogenic activity in Xenopus laevis tadpoles assessed as melanophore aggregation by microscopy; format: functional, organism-based
[3] = target: Melatonin receptor type 1A (Homo sapiens, UniProt P48039); test: Displacement of [125I]2-iodomelatonin from human recombinant MT1 receptor expressed in HEK293 cells after 2 hrs by gamma counting; format: cell-based
Chain of Melatonin receptor type 1A (P48039 whole entry): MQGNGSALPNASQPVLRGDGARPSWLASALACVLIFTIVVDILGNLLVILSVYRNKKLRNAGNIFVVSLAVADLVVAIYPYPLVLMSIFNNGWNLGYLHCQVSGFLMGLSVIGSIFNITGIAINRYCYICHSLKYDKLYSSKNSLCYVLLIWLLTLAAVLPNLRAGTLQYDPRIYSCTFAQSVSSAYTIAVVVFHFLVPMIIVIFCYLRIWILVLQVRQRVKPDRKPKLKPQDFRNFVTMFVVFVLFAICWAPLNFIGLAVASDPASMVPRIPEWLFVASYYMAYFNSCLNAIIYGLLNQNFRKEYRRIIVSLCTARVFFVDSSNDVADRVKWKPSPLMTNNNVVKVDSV

[4] = target: T1, Melatonin receptor type 1B (Homo sapiens, UniProt P49286); test: Displacement of [125I]2-iodomelatonin from human recombinant MT2 receptor expressed in HEK293 cells after 2 hrs by gamma counting; format: cell-based
T1 sequence (P49286 whole entry): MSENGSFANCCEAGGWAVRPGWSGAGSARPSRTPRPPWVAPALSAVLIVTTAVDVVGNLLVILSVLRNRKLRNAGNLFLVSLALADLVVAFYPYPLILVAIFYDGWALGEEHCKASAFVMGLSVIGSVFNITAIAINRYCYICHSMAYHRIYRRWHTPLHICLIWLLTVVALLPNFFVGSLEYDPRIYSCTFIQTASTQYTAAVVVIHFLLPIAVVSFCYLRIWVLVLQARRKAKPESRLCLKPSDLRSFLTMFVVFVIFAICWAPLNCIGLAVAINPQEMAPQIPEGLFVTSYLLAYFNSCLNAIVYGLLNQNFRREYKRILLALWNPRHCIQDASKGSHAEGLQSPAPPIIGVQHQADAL

[5] = Displacement of [125I]2-iodomelatonin from melatonin receptor in chicken brain membranes after 60 mins by gamma counting; format: cell membranes, Gallus gallus, Membrane
Xenopus laevis [6] = organism: Xenopus laevis; test: Ratio of melatonin EC50 to compound EC50 for antimelanogenic activity in Xenopus laevis tadpoles assessed as melanophore aggregation by microscopy; format: functional

Row | SMILES | EC50 (Xenopus laevis [2]) | Ki [3] | Ki [4] | Ki [5] | fold change (FC) (Xenopus laevis [1]) | Ratio EC50 (Xenopus laevis [6])
1 | CC(=O)N/C=C/c1cccc2ccccc12 | 854 nM | 6.7 nM | 1.4 nM |  | 0.0031 | 
2 | COc1cccc(/C=C/NC(C)=O)c1 |  |  |  | 803 nM |  | 
3 | CNC(=O)N/C=C/c1ccccc1OC |  | > 1000 nM | > 1000 nM |  |  | 
4 | CNC(=O)N/C=C/c1cccc2ccccc12 |  | 25 nM | 15 nM | 139 nM |  | 
5 | CNC(=O)N/C=C/c1c(OC)ccc2ccccc12 |  | 3.1 nM | 6.5 nM | 36.6 nM |  | 
6 | COc1ccc(OC)c([C@@H]2C[C@@H]2NC(C)=O)c1 (racemic) |  |  |  | > 1000 nM |  | 
7 | CC(=O)N[C@@H]1C[C@H]1c1cccc2ccccc12 (racemic) | > 10000 nM | 19 nM | 6.8 nM | 128 nM |  | 
8 | COc1ccc2ccccc2c1[C@@H]1C[C@H]1NC(C)=O (racemic) | 101 nM | 3.7 nM | 2.6 nM | 15 nM | 0.025 | 
9 | COc1ccc2ccc(OC)c([C@@H]3C[C@H]3NC(C)=O)c2c1 (racemic) | 0.01 nM | 0.06 nM | 0.2 nM | 0.46 nM | 264 | 
10 | COc1ccccc1[C@@H]1C[C@H]1NC(C)=O (racemic) |  |  |  | > 1000 nM |  | 
11 | COc1ccc(OC)c([C@@H]2C[C@H]2NC(C)=O)c1 (racemic) |  | 87 nM | 86 nM | 130 nM |  | 

Now from value to compound, other results behind:

Row | EC50 (Xenopus laevis [2]) | Ki [3] | Ki [4] | Ki [5] | SMILES | fold change (FC) (Xenopus laevis [1]) | Ratio EC50 (Xenopus laevis [6])
12 |  |  |  | 283 nM | COc1ccc(OC)c(/C=C/NC(C)=O)c1 |  | 
13 |  |  |  | > 1000 nM | CNC(=O)N/C=C/c1cc(OC)ccc1OC |  | 
14 | 0.035 nM | 0.04 nM | 0.03 nM | 0.16 nM | COc1ccc2cccc(/C=C/NC(C)=O)c2c1 | 6.1 | 
15 |  |  |  | 0.44 nM | CNC(=O)N/C=C/c1cccc2ccc(OC)cc12 |  | 
16 | 93.5 nM | 0.1 nM | 0.09 nM | 4.6 nM | COc1ccc2ccccc2c1/C=C/NC(C)=O | 0.028 | 
17 | 0.00076 nM | 0.03 nM | 0.07 nM | 0.012 nM | COc1ccc2ccc(OC)c(/C=C/NC(C)=O)c2c1 | 3473 | 1000
18 |  | 0.2 nM | 0.3 nM | 0.08 nM | CNC(=O)N/C=C/c1c(OC)ccc2ccc(OC)cc12 |  | 
19 |  |  |  | > 1000 nM | COc1ccccc1/C=C/NC(C)=O |  | 
20 | 155 nM | 0.3 nM | 0.7 nM | 1.6 nM | COc1ccc2cccc([C@@H]3C[C@H]3NC(C)=O)c2c1 (racemic) | 0.017 | 
21 |  |  |  | 93 nM | COc1cccc([C@@H]2C[C@H]2NC(C)=O)c1 (racemic) |  | 
22 | 0.35 nM |  |  | 0.67 nM | COc1ccc2cccc(CCNC(C)=O)c2c1 [AGOMELATINE] |  | 
23 |  |  |  | 0.54 nM | COc1ccc2[nH]cc(CCNC(C)=O)c2c1 [MELATONIN] |  | 
